Test results taken from patent US3978210A, “Antibiotic aculeacins” (Toyo Jozo Kabushiki Kaisha, priority 1974, dated 1976).

Assays:
Candida albicans = assay: Activity against yeasts, minimum inhibitory concentration; assay type: cell-based; design: unit not given here; settings: Sabroud agar, 30°C., 48 hours
Protocol: (§1) 2. Activity against yeasts:
(§2) Assay medium: Sabroud agar, at 30°C., for 48 hours.

Candida krusei = assay: as above; assay type: cell-based; settings: Sabroud agar, 30°C., 48 hours
Protocol: as §1, §2

Candida parakrusei = assay: as above; assay type: cell-based; settings: Sabroud agar, 30°C., 48 hours
Protocol: as §1, §2

Candida pseudotropicalis = assay: as above; assay type: cell-based; settings: Sabroud agar, 30°C., 48 hours
Protocol: as §1, §2

Candida quilliermondii = assay: as above; assay type: cell-based; settings: Sabroud agar, 30°C., 48 hours
Protocol: as §1, §2

Candida tropicalis = assay: as above; assay type: cell-based; settings: Sabroud agar, 30°C., 48 hours
Protocol: as §1, §2

Cryptococcus neoiormans = assay: as above; assay type: cell-based; settings: Sabroud agar, 30°C., 48 hours
Protocol: as §1, §2

Mycotorula japonica = assay: as above; assay type: cell-based; settings: Sabroud agar, 30°C., 48 hours
Protocol: as §1, §2

Saccharomyces cerevisiae = assay: as above; assay type: cell-based; settings: Sabroud agar, 30°C., 48 hours
Protocol: as §1, §2

Saccharomyces sake = assay: as above; assay type: cell-based; settings: Sabroud agar, 30°C., 48 hours
Protocol: as §1, §2

Torula utilis = assay: as above; assay type: cell-based; settings: Sabroud agar, 30°C., 48 hours
Protocol: as §1, §2

Ascochyta soyaecola = assay: Activity against fungi, giant colony growth inhibition; assay type: cell-based; settings: Sabroud agar, 26°C., 7 to 14 days
Protocol: (§3) 3. Activity against fungi:
(§4) Since aculeacins have no fungicidal activity, fungi are inoculated in Sabroud agar medium containing several concentrations of aculeacins, and incubated at 26°C. 7 to 14 days. 80% growth inhibitory concentrations of aculeacins are measured by the ratio of area of giant colony to that of control without aculeacins.

Aspergillus fumigatus = assay: as above; assay type: cell-based; settings: Sabroud agar, 26°C., 7 to 14 days
Protocol: as §3, §4

Cercospora kikuchii = assay: as above; assay type: cell-based; settings: Sabroud agar, 26°C., 7 to 14 days
Protocol: as §3, §4

[1] = tested on: Collectotrichum linicolum; assay: as above; assay type: cell-based; settings: Sabroud agar, 26°C., 7 to 14 days
Protocol: as §3, §4

Corynespora cassicola = assay: as above; assay type: cell-based; settings: Sabroud agar, 26°C., 7 to 14 days
Protocol: as §3, §4

Diaporthe phaseolorum = assay: as above; assay type: cell-based; settings: Sabroud agar, 26°C., 7 to 14 days
Protocol: as §3, §4

[2] = tested on: Fusarium oxysporum f. lini; assay: as above; assay type: cell-based; settings: Sabroud agar, 26°C., 7 to 14 days
Protocol: as §3, §4

Glomerella cingulata = assay: as above; assay type: cell-based; settings: Sabroud agar, 26°C., 7 to 14 days
Protocol: as §3, §4

Helminthosporium oryzae = assay: as above; assay type: cell-based; settings: Sabroud agar, 26°C., 7 to 14 days
Protocol: as §3, §4

Microsporum gypseum = assay: as above; assay type: cell-based; settings: Sabroud agar, 26°C., 7 to 14 days
Protocol: as §3, §4

Sclerotium bataticola = assay: as above; assay type: cell-based; settings: Sabroud agar, 26°C., 7 to 14 days
Protocol: as §3, §4

Trichophyton asteroides = assay: as above; assay type: cell-based; settings: Sabroud agar, 26°C., 7 to 14 days
Protocol: as §3, §4

Trichophyton rubrum = assay: as above; assay type: cell-based; settings: Sabroud agar, 26°C., 7 to 14 days
Protocol: as §3, §4

mouse = assay: Acute toxicity on mouse, LD50; assay type: in vivo
Source text: 4. Acute toxicity on mouse:
Aculeacins are almost insoluble in water, soluble in 1% sodium carboxy-methyl cellulose (CMC) solution and sodium deoxycholate (DOC). LD50 of aculeacin-A injection prepared by using those additives is as follows: […]

Substance: Aculeacin-A
- minimum inhibitory concentration (Candida albicans; Candida albicans 1): 0.2
- minimum inhibitory concentration (Candida albicans; Candida albicans 2): < 0.1
- minimum inhibitory concentration (Candida albicans; Candida albicans 3): < 0.1
- minimum inhibitory concentration (Candida albicans; Candida albicans 4): 0.2
- minimum inhibitory concentration (Candida albicans; Candida albicans 5): 1.6
- minimum inhibitory concentration (Candida albicans; Candida albicans 6): < 0.1
- minimum inhibitory concentration (Candida albicans; Candida albicans 7): 3.2
- minimum inhibitory concentration (Candida albicans; Candida albicans 8): 0.1
- minimum inhibitory concentration (Candida krusei): 0.8
- minimum inhibitory concentration (Candida parakrusei): 3.2
- minimum inhibitory concentration (Candida pseudotropicalis): 0.8
- minimum inhibitory concentration (Candida quilliermondii): 0.8
- minimum inhibitory concentration (Candida tropicalis): > 100
- minimum inhibitory concentration (Cryptococcus neoiormans): > 100
- minimum inhibitory concentration (Mycotorula japonica): < 0.1
- minimum inhibitory concentration (Saccharomyces cerevisiae): 1.6
- minimum inhibitory concentration (Saccharomyces sake): 1.6
- minimum inhibitory concentration (Torula utilis): < 0.1
- 80% growth inhibitory concentration (Ascochyta soyaecola): 0.08 gamma/ml.
- 80% growth inhibitory concentration (Aspergillus fumigatus): 0.5 gamma/ml.
- 80% growth inhibitory concentration (Cercospora kikuchii): 4.0 gamma/ml.
- 80% growth inhibitory concentration [1]: 0.4 gamma/ml.
- 80% growth inhibitory concentration (Corynespora cassicola): 2.0 gamma/ml.
- 80% growth inhibitory concentration (Diaporthe phaseolorum): 0.01 gamma/ml.
- 80% growth inhibitory concentration [2]: 2.0 gamma/ml.
- 80% growth inhibitory concentration (Glomerella cingulata): 0.06 gamma/ml.
- 80% growth inhibitory concentration (Helminthosporium oryzae): 0.008 gamma/ml.
- 80% growth inhibitory concentration (Microsporum gypseum): 0.008 gamma/ml.
- 80% growth inhibitory concentration (Sclerotium bataticola): 0.08 gamma/ml.
- 80% growth inhibitory concentration (Trichophyton asteroides): 0.004 gamma/ml.
- 80% growth inhibitory concentration (Trichophyton rubrum): 0.006 gamma/ml.
- LD50 (mouse; i.m., in CMC): > 3460 mg/kg
- LD50 (mouse; i.m., in DOC): 600 mg/kg
- LD50 (mouse; i.p., in CMC): 600 mg/kg
- LD50 (mouse; i.v., in DOC): 350 mg/kg
- LD50 (mouse; p.o., in CMC): > 3000 mg/kg
